In article PMC6220272, “Scaffold-Hopping from Synthetic Drugs by Holistic Molecular Representation” (Scientific Reports, 2018):

Key:
Type in all cases: cell-based
[1] = molecular target: T1, human RXRγ ligand binding domain (Gal4 hybrid receptor) (Homo sapiens, UniProt P48443); experiment: Gal4 hybrid reporter gene assay RXRγ; conditions: HEK293T cells, n ≥ 4, read-out: RXRγ EC50 ± SEM
T1 construct: expressed in transfected cells; host or cells: HEK293T
T1 sequence (P48443 231-459 limits assumed): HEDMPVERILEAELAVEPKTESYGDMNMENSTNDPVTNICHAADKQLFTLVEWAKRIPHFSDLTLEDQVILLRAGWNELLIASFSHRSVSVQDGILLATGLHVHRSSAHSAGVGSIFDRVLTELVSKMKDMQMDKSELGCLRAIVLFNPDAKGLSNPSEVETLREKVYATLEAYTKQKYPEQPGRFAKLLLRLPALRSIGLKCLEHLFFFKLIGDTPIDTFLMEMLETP
Method: (§1) The 20 top-ranked synthetic compounds were selected and tested in vitro for their modulatory activity on RXR (Supplementary Table 1). Compounds were tested in specific hybrid reporter gene assays for RXRα, RXRβ and RXRγ modulation[39]–[41]. These assays rely on a constitutively expressed hybrid receptor composed of the respective human RXR ligand binding domain and the DNA binding domain of the Gal4 receptor from yeast. A Gal4 responsive firefly luciferase was used as reporter gene and constitutively expressed renilla luciferase served as internal control for transfection efficiency and test compound toxicity. All selected compounds were tested at 50 µM concentration on RXRα and for active compounds (Supplementary Fig. 1), dose response curves were recorded on all three RXR subtypes.
(§2) The Gal4 hybrid reporter gene assays were conducted as reported previously[39]–[41]. pFA-CMV-based constructs comprising the ligand binding domain of the human nuclear receptor in question were used as expression plasmids for the chimera receptors. pFR-Luc (Stratagene) served as reporter plasmid and pRL-SV40 (Promega) for normalization of transfection efficiency and cell growth. The assays were conducted in 96-well format in HEK293T cells that were cultured as described previously[39]–[41]. Transient transfection was carried out using Lipofectamine LTX reagent (Invitrogen) according to the manufacturer’s protocol. After transfection and incubation with test compounds (12–14 h), cells were assayed for luciferase activity using Dual-Glo™ Luciferase Assay System (Promega) according to the manufacturer’s protocol. Luminescence was measured with an Infinite M200 luminometer (Tecan Deutschland GmbH). All hybrid assays were validated with reference agonists (PPARα: GW7647; PPARγ: pioglitazone; PPARδ: L165,041; LXRα/β: T0901317; FXR: GW4064; RXRs: bexarotene; RARs: tretinoin; VDR: calcitriol; CAR: CITCO; PXR: SR12813) which yielded EC50 values in agreement with literature. The assays were conducted in duplicates with at least two independent repeats and for active compounds repeated without hybrid receptor coding DNA for every test compound at the highest tested concentration to exclude unspecific effects.
(§3) Supplementary Figure 2. Dose-response curves for RXRα activation. Compounds were tested in specific hybrid reporter gene assays for RXRα, RXRβ and RXRγ modulation.^1–3 These assays rely on a constitutively expressed hybrid receptor composed of the respective human RXR ligand binding domain and the DNA binding domain of the Gal4 receptor from yeast. A Gal4 responsive firefly luciferase was used as reporter gene and constitutively expressed renilla luciferase served as internal control for transfection efficiency and test compound toxicity. […]

[2] = molecular target: T2, human RXRβ ligand binding domain (Gal4 hybrid receptor) (Homo sapiens, UniProt P28702); experiment: Gal4 hybrid reporter gene assay RXRβ; conditions: HEK293T cells, n ≥ 4, read-out: RXRβ EC50 ± SEM
T2 construct: expressed in transfected cells; host or cells: HEK293T
T2 sequence (P28702 296-529 limits assumed): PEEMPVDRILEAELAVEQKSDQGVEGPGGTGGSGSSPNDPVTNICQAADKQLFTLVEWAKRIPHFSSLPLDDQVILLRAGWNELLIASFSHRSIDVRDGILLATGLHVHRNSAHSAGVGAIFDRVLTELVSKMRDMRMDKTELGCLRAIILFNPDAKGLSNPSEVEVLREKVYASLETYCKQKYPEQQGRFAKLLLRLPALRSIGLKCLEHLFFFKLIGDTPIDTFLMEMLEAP
Method: as §1, §2, §3

[3] = molecular target: T3, human RXRα ligand binding domain (Gal4 hybrid receptor) (Homo sapiens, UniProt P19793); experiment: Gal4 hybrid reporter gene assay RXRα; conditions: HEK293T cells, n ≥ 4, read-out: RXRα EC50 ± SEM
T3 construct: expressed in transfected cells; host or cells: HEK293T
T3 sequence (P19793 227-458 limits assumed): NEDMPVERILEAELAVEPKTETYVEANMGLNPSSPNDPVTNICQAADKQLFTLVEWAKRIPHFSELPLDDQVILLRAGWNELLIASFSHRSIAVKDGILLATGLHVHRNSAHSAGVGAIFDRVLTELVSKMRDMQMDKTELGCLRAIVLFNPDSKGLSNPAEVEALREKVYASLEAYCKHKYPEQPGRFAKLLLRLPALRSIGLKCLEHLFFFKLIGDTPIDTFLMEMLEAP
Method: as §1, §2, §3

EC50 [1] [µM] | EC50 [2] [µM] | EC50 [3] [µM] | Structure (SMILES)
15 ± 0.6 | 14.7 ± 0.8 | 17 ± 1 | Cc1ccc(NC2=NC(=O)/C(=C/c3ccc(O)cc3)S2)cc1C [Compound 5]
16 ± 4 | 16.6 ± 0.2 | 16.5 ± 0.6 | CC(NC(=O)c1cccc(OCc2ccccc2)c1)c1ccccc1 (stereo not drawn) [Compound 6]
32 ± 3 | 25.6 ± 0.4 | 23.7 ± 0.7 | CC/C(=N/NC(=S)Nc1ccc(Cl)cc1Cl)c1ccc(O)cc1 [Compound 8]
